Assay results published in patent EP0272446B1, “Novel antiviral agents” (SRI INTERNATIONAL, priority 1983, dated 1984).
Values after ≈ are worked out from the molar mass of the structure shown. Read-outs that look alike come from different tables or passages of the source.

What was measured:
[1] = tested on: thymidine kinase positive herpes virus; assay: In vivo test in guinea pigs inoculated with herpes virus, lesions measured; conditions: for Satellite lesions: five days later; for TK+ virus, average number of lesions: measured five days later
Protocol: The compound of Example II was tested in vivo in guinea pigs as an agent against thymidine kinase positive herpes virus. The animals were innoculated with the virus. Eighteen hours later the material of Example II (0.4% solution in water or 1-2% solution), a 5% solution of acyclovir or a 1.4% solution of poly(vinylalcohol) was administered and five days later blister diameters at the point of innoculation were measured. Satellite lesions were measured as well.

[2] = tested on: Thymidine Kinase-Positive Type 1 Herpes Virus; assay: In vitro antiviral test, inhibition of viral cytopathic effect (CPE) in MA-104 cell monolayers; assay type: cell-based, Strain McCrae of type 1 herpes
Protocol: The compounds of Example I and II were evaluated in vitro as antiviral agents against herpes virus.
The virus strain employed was Strain McCrae of type 1 herpes (thymidine kinase positive virus) prepared and titered in MA-104 cells and frozen at -90°C until use.
(§1) Continuous passaged monkey kidney (MA-104) cells were used, with growth medium consisting of Minimum Essential Medium (MEM) supplemented with 0.1% NaHCO₃ and 9% fetal calf serum. Test medium consisted of MEM supplemented with 2% fetal bovine serum, 0.18% NaHCO₃ and […] gentamicin.
The last compounds were added to test medium at a concentration of 2000 µg/ml for use as a positive control.
(§2) To a 96 well microtiter plate containing an established 24 hour monolayer of cells from which the medium has been decanted was added 0.1 ml of varying (one-half log₁₀) concentrations of test compound, which incubated on the cell 15 minutes, after which 0.1 ml of virus in a concentration of 320 cell culture 50% infectious doses (CCID50)/0.1 ml was added. The plate was covered with plastic wrap and incubated at 37°C. Included with the test were toxicity controls (each concentration of compound + test medium in place of […]) and cell controls (test medium in place of compound and virus). The cells were examined microscopically after 72 hours for evidence of cytotoxicity and for viral cytopathic effect (CPE). Vidarabine was run on the same plate in parallel.
(§3) Antiviral activity was determined by observation of inhibition of viral CPE. This activity was expressed by minimum inhibitory concentration (MIC), Defined as that dose range of compound causing 50% CPE inhibition. A Virus Rating (VR) was also determined, which is a numerical expression of antiviral activity, weighted to take into account any cytotoxicity observed. Generally, a VR of 0.1 - 0.4 is usually indicative of slight antiviral effect, 0.5 - 0.9 indicates moderate antiviral effedt, and >1.0 implies strong antiviral activity.

[3] = Cytotoxicity (toxicity controls) in the antiviral test, maximum tolerated dose; assay type: cell-based; conditions: monkey, ma-104 cells, Table B
Protocol: as §1, §2

[4] = tested on: cytomegalo virus; assay: In vitro antiviral test (CPE inhibition method) against cytomegalo virus; assay type: cell-based
Protocol: as §2
as §3, with “Generally, a VR of 0.1 - 0.4 is usually indicative of slight antiviral effect, 0.5 - 0.9 indicates moderate antiviral effedt, and >1.0 implies strong antiviral activity.” left out
The compound of Example II was further evaluated by the above-described in vitro test method against cytomegalo virus. […]

[5] = 5% solution given eighteen hours after inoculation
[6] = Table A, 0.1 - 0.4 = slight, 0.5 - 0.9 = moderate, ≥ 1.0 = strong activity
[7] = MA104, read-out: MIC (Minimum inhibitory concentration)
[8] = MA104, read-out: Test1 CPE Inhib. (%)
[9] = MA104, read-out: Test2 CPE Inhib. %
[10] = Test 1, read-out: MTD (Maximum tolerated dose)
[11] = Test 2, read-out: MTD (Maximum tolerated dose)
[12] = 0.4% solution in water given eighteen hours after inoculation
[13] = 1-2% saturated solution given eighteen hours after inoculation
[14] = MA104, 72 h, read-out: CPE Inhib. (%)

Structure (SMILES): Nc1nc2c(ncn2COCCO)c(=O)[nH]1 [Acyclovir, acyclovir, reference compound]
- Satellite lesions [1, 5]: 4
- TK+ virus, average number of lesions [1, 5]: 1.0

Structure (SMILES): Nc1nc2c(ncn2COCCCP(=O)(O)O)c(=O)[nH]1 [Example I, 9(3-phosphono-1-propyloxymethyl)guanine]
- inhibition at 1 µg/mL ([2]; MA104, Table A, conc. 1.0 μg/ml, 72 hours, read-out: CPE Inhib. (%)): 31%
- inhibition at 3.2 µg/mL ([2]; MA104, Table A, conc. 3.2 μg/ml, 72 hours, read-out: CPE Inhib. (%)): 28%
- inhibition at 10 µg/mL ([2]; MA104, Table A, conc. 10 μg/ml, 72 hours, read-out: CPE Inhib. (%)): 49%
- inhibition at 32 µg/mL ([2]; MA104, Table A, conc. 32 μg/ml, 72 hours, read-out: CPE Inhib. (%)): 62%
- inhibition at 100 µg/mL ([2]; MA104, Table A, conc. 100 μg/ml, 72 hours, read-out: CPE Inhib. (%)): 79%
- inhibition at 320 µg/mL ([2]; MA104, Table A, conc. 320 μg/ml, 72 hours, read-out: CPE Inhib. (%)): 94%
- inhibition at 1000 µg/mL ([2]; MA104, Table A, conc. 1000 μg/ml, 72 hours, read-out: CPE Inhib. (%)): 100%
- EC50 ([2]; MA104, Table A, dosage range wherein a 50% CPE inhibition is seen, read-out: MIC (Minimum inhibitory concentration)): 10 µg/mL (≈ 33 µM)
- VR (Virus rating) [2, 6]: 1.4

Structure (SMILES): CCOP(=O)(O)CCCOCn1cnc2c(=O)[nH]c(N)nc21 [Example II, 9(3-ethylphosphono-1-propyloxymethyl)guanine]
- EC50 [2, 7]: < 1 µg/mL
- inhibition at 1.2 µg/mL [2, 8]: 69%
- inhibition at 3.2 µg/mL [2, 8]: 96%
- inhibition at 10 µg/mL [2, 8]: 38%
- inhibition at 32 µg/mL [2, 8]: 6%
- inhibition at 100 µg/mL [2, 8]: 47%
- inhibition at 320 µg/mL [2, 8]: 82%
- inhibition at 1000 µg/mL [2, 8]: 100%
- inhibition at 1.2 µg/mL [2, 9]: 48%
- inhibition at 3.2 µg/mL [2, 9]: 52%
- inhibition at 10 µg/mL [2, 9]: 48%
- inhibition at 32 µg/mL [2, 9]: 57%
- inhibition at 100 µg/mL [2, 9]: 57%
- inhibition at 320 µg/mL [2, 9]: 67%
- inhibition at 1000 µg/mL [2, 9]: 76%
- VR (Virus rating) ([2]; Table B, Test 1): >2.0
- VR (Virus rating) ([2]; Table B, Test 2): >1.4
- MIC (Minimum inhibitory concentration) ([2]; Table B, Test 2, dosage range wherein a 50% CPE inhibition is seen): <1.0 µg/mL
- MNTC at 72 h [3, 10]: 320 µg/mL
- MNTC at 72 h [3, 11]: > 1000 µg/mL
- VR [4]: 2.1-2.3
- Satellite lesions [1, 12]: 11
- TK+ virus, average number of lesions [1, 12]: 2.1
- Satellite lesions [1, 13]: 6
- TK+ virus, average number of lesions [1, 13]: 0.9

Structure (SMILES): Nc1ncnc2c1ncn2[C@@H]1O[C@H](CO)[C@@H](O)[C@@H]1O [Vidarabine, reference compound]
- inhibition at 1 µg/mL [2, 14]: 56%
- inhibition at 3.2 µg/mL [2, 14]: 28%
- inhibition at 10 µg/mL [2, 14]: 69%
- inhibition at 32 µg/mL [2, 14]: 87%
- inhibition at 100 µg/mL [2, 14]: 87%
- inhibition at 320 µg/mL [2, 14]: 100%
- inhibition at 1000 µg/mL [2, 14]: 100%
- EC50 [2, 7]: 10 µg/mL (≈ 37.4 µM)
- inhibition at 3.2 µg/mL [2, 8]: 2%
- inhibition at 10 µg/mL [2, 8]: 60%
- inhibition at 32 µg/mL [2, 8]: 96%
- inhibition at 100 µg/mL [2, 8]: 96%
- inhibition at 320 µg/mL [2, 8]: 100%
- inhibition at 1000 µg/mL [2, 8]: 100%
- inhibition at 3.2 µg/mL [2, 9]: 0%
- inhibition at 10 µg/mL [2, 9]: 39%
- inhibition at 32 µg/mL [2, 9]: 57%
- inhibition at 100 µg/mL [2, 9]: 85%
- inhibition at 320 µg/mL [2, 9]: 100%
- inhibition at 1000 µg/mL [2, 9]: 100%
- VR (Virus rating) [2, 6]: 1.3
- VR (Virus rating) ([2]; Table B, Test 1): 0.8
- VR (Virus rating) ([2]; Table B, Test 2): 07
- MNTC at 72 h [3, 10]: 10 µg/mL
- MNTC at 72 h [3, 11]: 10 µg/mL
